Laboratory results as given in patent publication US7700646B2, “Compounds for use in the treatment of infection” (The University of London, School of Pharmacy, priority 2004, dated 2010).
Values joined by “and” are separate entries in the source; they are usually repeats but may differ in a detail not shown here. Equal values may be shown once.

Assays:
EMRSA-15 [1] = experiment: MIC of compound alone, broth dilution; format: cell-based, Staphylococcus aureus; details: MHB + 2% NaCl, 35° C., 24 h
Experimental: (§1) Bacterial strains: S. aureus BB568 (COL-type strain that carries mecA and pT181) was provided by Professor B. Berger-Bächi. EMRSA-15 and EMRSA-16 were clinical isolates from the Royal Free Hospital, London.
(§2) Antibacterial susceptibility testing: Minimum Inhibitory Concentration (MIC) was determined by both broth and agar dilution techniques. Broth MIC testing was performed in 96-well microtitre trays with an inoculum of about 10^4 cfu in 100 μL of Mueller-Hinton broth (MHB) (Oxoid, Basingstoke, United Kingdom) supplemented with 2% NaCl. MIC determinations by agar dilution were carried out using Mueller-Hinton agar (Oxoid) with an inoculum of about 10^4 organisms per spot. For both methods, MIC values were obtained after incubation at 35° C. for 24 h. S. aureus ATCC29213 was used as the standard.

EMRSA-16 [2] = experiment: MIC of compound alone, broth dilution; format: cell-based, Staphylococcus aureus; details: MHB + 2% NaCl, 35° C., 24 h
Experimental: as §1, §2

S. aureus BB568 [3] = experiment: MIC of compound alone, broth dilution; format: cell-based, Staphylococcus aureus; details: 35° C., 24 h
Experimental: as §1, §2

EMRSA-15 [4] = experiment: MIC of oxacillin in absence or presence of fixed concentration of compound; format: cell-based, Staphylococcus aureus
Experimental: as §1, §2
(§3) With the amide derivatives (21 and 24) in hand, their efficacy as modulators for β-lactam resistance in S. aureus was evaluated by determining their capcity to reduce the minimum inhibitory concentration (MIC) of oxacillin against MRSA strains BB 568, EMRSA-15 and EMRSA-16 as described in example 2.
(§4) With the B-ring modified analogues 47 and 48 in hand, their efficacy as modulators for β-lactam resistance in S. aureus was evaluated by determining their capacity to reduce the minimum inhibitory concentration (MIC) of oxacillin against MRSA strains BB 568, EMSRA-15 and EMSRA-16 (Table 5)

EMRSA-16 [5] = experiment: as above; format: cell-based, Staphylococcus aureus
Experimental: as §1, §2, §3, §4

S. aureus BB568 [6] = experiment: as above; format: cell-based, Staphylococcus aureus; details: BB 568
Experimental: as §1, §2, §3, §4

[7] = test system: MRSA strains BB 568, EMRSA-15 and EMRSA-16; experiment: Intrinsic antibacterial activity, summary over three strains; format: cell-based, Staphylococcus aureus; details: compound alone, in words
Experimental: as §1, §2
(§5) Sub-inhibitory concentrations (6.25, 12.5 and 25 mg/L) of both compounds were effective in reducing the MIC of all three strains examined.

[8] = test system: MRSA strains BB 568, EMRSA-15 and EMRSA-16; experiment: Modulation of oxacillin resistance, summary over three strains; format: cell-based, Staphylococcus aureus; details: for potency as oxacillin sensitiser compared with ECg: 6.25 mg/L of catechin gallate
Experimental: as §1, §2, §5
At a concentration of 25 mg/L, ECg and the two analogues (47 and 48) fully sensitised each of the three MRSA strains to oxacillin, reducing the MICs to less than 0.5 mg/L, a figure well below the clinically-relevant breakpoint for β-lactam antbiotics.

porcine liver esterase = experiment: Esterase sensitivity; format: in vitro ADME; details: porcine liver esterase (Sigma), 10 min at 37° C.
Experimental: The product of example 1 was tested for in esterase sensitivity as compared to ECG using commercially available porcine liver esterase (Sigma).

EMRSA-16 cells = experiment: Binding of catechins to staphylococcal cells (HPLC of unbound catechin); set-up: species or system Staphylococcus aureus; details: compound added alone
Text: The method is based on Hashimoto, T. et al 1999.

MRSA strain BB568 = details: cited from earlier work; for MIC of oxacillin in combination with compound: fixed sub-inhibitory concentration of compound
40 MRSA strains = details: all 40 MRSA strains; cited from earlier work
[9] = Staphylococcus aureus, read-out: MIC
[10] = Staphylococcus aureus, BB568, BB 568, MHB + 2% NaCl, read-out: MIC
[11] = in presence of 25 mg/L compound
[12] = in presence of 6.25 mg/L compound
[13] = in presence of 12.5 mg/L compound
[14] = in presence of 12.5 mg/L compound, listed as ECG
[15] = Staphylococcus aureus, absence of compound, 35° C., 24 h

Oxacillin MIC (EMRSA-16 [5]; [11]) | Oxacillin MIC (S. aureus BB568 [6]; [11]) | MIC (EMRSA-15 [1]) | MIC (EMRSA-16 [2]) | MIC (S. aureus BB568 [3]; BB 568, MHB + 2% NaCl) | Oxacillin MIC (EMRSA-15 [4]; [12]) | Oxacillin MIC (EMRSA-16 [5]; [12]) | Oxacillin MIC (S. aureus BB568 [6]; [12]) [mg/L] | Compound | Oxacillin MIC (EMRSA-15 [4]; [11]) | intrinsic antibacterial activity [7] | Oxacillin MIC (EMRSA-15 [4]; [13]) | Oxacillin MIC (EMRSA-16 [5]; [13]) | Oxacillin MIC (S. aureus BB568 [6]; [13]) | MIC of oxacillin in combination with compound (MRSA strain BB568) | also measured
256/512 | 64/64 | – | – | – | – | – | – | O=C(N[C@H]1Cc2c(O)cc(O)cc2O[C@@H]1c1ccc(O)c(O)c1)c1cc(O)c(O)c(O)c1 [Compound 24] | significant degree of sensitisation and 2/4 | extremely weak intrinsic antibacterial activity | – | – | – | – | MIC (EMRSA-15 [1]; [9]): 256 µg/mL; MIC (EMRSA-16 [2]; [9]): 128 µg/mL; MIC (S. aureus BB568 [3]; [10]): 256 µg/mL
≦0.5 mg/L | ≦0.5 mg/L | >128 µg/mL | 128 µg/mL | >128 µg/mL | 2 mg/L | 32 mg/L | 16 | O=C(O[C@@H]1Cc2c(O)cc(O)cc2O[C@@H]1c1cccc(O)c1)c1cc(O)c(O)c(O)c1 [Compound 47, (−)-3-hydroxy B ring modified (−)-ECg] | ≦0.5 mg/L | little or no intrinsic antibacterial activity | ≦0.5 mg/L | 1 mg/L | 2 mg/L | – | potency as oxacillin sensitiser compared with ECg [8]: less potent than the natural compound
≦0.5 mg/L | ≦0.5 mg/L | 64 µg/mL | 32 µg/mL | 128 µg/mL | 2 mg/L | 64 mg/L | 16 | O=C(O[C@@H]1Cc2c(O)cc(O)cc2O[C@@H]1c1cc(O)cc(O)c1)c1cc(O)c(O)c(O)c1 [Compound 48, (−)-3,5-dihydroxy B ring modified (−)-ECg] | ≦0.5 mg/L | weak to moderate anti-staphylococcal activity | ≦0.5 mg/L | ≦0.5 mg/L | 1 mg/L | – | potency as oxacillin sensitiser compared with ECg [8]: less potent than the natural compound
– | – | – | – | – | – | – | – | Oc1cc(O)c2c(c1)O[C@H](c1cc(O)c(O)c(O)c1)[C@H](O)C2 [EGC, epigallocatechin] | – | – | – | – | – | inactive | –
– | – | – | – | – | – | – | – | O=C(O[C@@H]1Cc2c(O)cc(O)cc2O[C@@H]1c1cc(O)c(O)c(O)c1)c1cc(O)c(O)c(O)c1 [EGCg, epigallocatechin gallate] | – | – | – | – | – | 8 µg/mL | Binding (%) (EMRSA-16 cells): 16.2%
– | – | – | – | – | – | – | – | Cc1onc(-c2ccccc2)c1C(=O)N[C@@H]1C(=O)N2[C@@H]1SC(C)(C)[C@@H]2C(=O)O [Oxacillin, oxacillin, reference compound] | – | – | – | – | – | – | MIC (EMRSA-15 [4]; [15]): 32 µg/mL; MIC (EMRSA-16 [5]; [15]): 512 µg/mL; Oxacillin MIC (S. aureus BB568 [6]; absence of compound, 35° C., 24 h, listed as Oxacillian): 256 mg/L; MIC (S. aureus BB568 [6]; Staphylococcus aureus, BB568, absence of compound, 35° C., 24 h): 256 µg/mL; MIC for oxacillin (MRSA strain BB568; oxacillin alone): 256 µg/mL

Compound | Oxacillin MIC (EMRSA-16 [5]; [11]) | Oxacillin MIC (S. aureus BB568 [6]; [11]) | MIC (EMRSA-15 [1]) | MIC (EMRSA-16 [2]) | MIC (S. aureus BB568 [3]; BB 568, MHB + 2% NaCl) | Oxacillin MIC (EMRSA-15 [4]; [12]) | Oxacillin MIC (EMRSA-16 [5]; [12]) | Oxacillin MIC (S. aureus BB568 [6]; [12]) [mg/L] | Oxacillin MIC (EMRSA-15 [4]; [11]) | intrinsic antibacterial activity [7] | Oxacillin MIC (EMRSA-15 [4]; [13]) | Oxacillin MIC (EMRSA-16 [5]; [13]) | Oxacillin MIC (S. aureus BB568 [6]; [13]) | MIC of oxacillin in combination with compound (MRSA strain BB568) | also measured
O=C(O[C@@H]1Cc2c(O)cc(O)cc2O[C@@H]1c1ccc(O)c(O)c1)c1cc(O)c(O)c(O)c1 [ECg, (−)-epicatechin gallate, reference compound] | ≦0.5 mg/L | ≦0.5 mg/L | – | – | – | ≦0.5 mg/L | ≦0.5 mg/L | 1 | ≦0.5 mg/L | – | ≦0.5 mg/L | ≦0.5 mg/L | ≦0.5 mg/L | 1 µg/mL | Oxacillin MIC (EMRSA-16 [5]; [14]): 1 mg/L; Oxacillin MIC (S. aureus BB568 [6]; [14]): 1 mg/L; hydrolysis by esterase (porcine liver esterase): totally hydrolysed; Binding (%) (EMRSA-16 cells): 22%; reduction of β-lactam MIC (40 MRSA strains): reduced the MIC values to the susceptibility breakpoint or below
O=C(N[C@@H]1Cc2c(O)cc(O)cc2O[C@@H]1c1ccc(O)c(O)c1)c1cc(O)c(O)c(O)c1 [Ex 1] | 1/1 | 4/8 | 128/256 | 128/128 | 128/256 | – | – | – | – | extremely weak intrinsic antibacterial activity | 1/1 | 32/64 | 32/64 | – | MIC (EMRSA-15 [1]; [9]): 256 µg/mL; MIC (EMRSA-16 [2]; [9]): 128 µg/mL; MIC (S. aureus BB568 [3]; [10]): 256 µg/mL; Oxacillin MIC, each of the three MRSA strains [8, 11]: able to reduce the resistance to oxacillin of all three strains; hydrolysis by esterase (porcine liver esterase): not affected
